# Source: EPA's ToxValDB 9.5 (doi:10.2903/j.efsa.2008.140r)
# Legend:
# Canidae = details: chronic; duration: 1 years; oral; Dog Other; clinical signs
# Daphnia magna = details: chronic/long-term; duration: 21 days; reproduction
# Rattus norvegicus = details: for NOAEL: chronic
# Colinus virginianus = details: acute; oral; mortality
# Typhlodromus pyri = details: not reported; other
structure (smiles),measurement,setting,value
CCN(CC)C(=O)C(C)Oc1cccc2ccccc12 (stereo unspecified) [Napropamide],NOAEL,Canidae,50 mg/kg-day
same,NOEC,Daphnia magna,4.3 mg/L
same,LD50,"Rattus norvegicus; acute, mortality",4680 mg/kg-day
same,NOAEL,"Rattus norvegicus; duration: 2 years, oral, body weight",30 mg/kg-day
same,NOAEL,Rattus norvegicus; mortality,30 mg/kg-day
same,LD50,Colinus virginianus,> 2250 mg/kg-day
same,LEL,Typhlodromus pyri,4500 g/ha
same,LC50,"Tagia sp.; acute, duration: 14 days, mortality",564 mg/kg
same,NOEC,"Tagia sp.; chronic/long-term, reproduction",60 mg/kg
same,LC50,"Oncorhynchus mykiss; acute, duration: 96 hours, mortality",6.6 mg/L
same,NOEC,"Oncorhynchus mykiss; chronic/long-term, duration: 28 days, growth",1.1 mg/L
